From patent US20200038418A1, “METHODS OF TREATING AUTISM SPECTRUM DISORDER USING AMINOSTEROL COMPOSITIONS” (Enterin, Inc., priority 2018, published 2020)
Several values for one entry are separate records, joined by “and”; a condition that tells them apart may be missing. Equal entries are not always repeated.

What was measured:
[1] = tested on: patients with PD and constipation; assay: Stage 2 bowel function, stool related indices; assay type: in vivo, human; settings: Stage 2, fixed dose, n = 34
Experimental: Following successful screening, all subjects underwent a 14-day run-in period where the degree of constipation was assessed through a validated daily log (Zinsmeister et al., 2013) establishing baseline CSBMs/week. Subjects with an average of <3 CSBMs/week proceeded to dosing.
In Stage 2, 34 patients were evaluated.
The primary efficacy outcome variable was whether or not a subject was a “success” or “failure.” This is an endpoint based on subject diary entries for the “fixed dose” period prior to the endpoint assessment defined as average complete stool frequency increase by 1 or more over baseline, or 3 or more complete spontaneous stools/week. The subject was deemed a “success” if s/he met one or more of the criteria listed above, otherwise the subject was deemed a “failure.” The primary analysis was based on all subjects with a baseline assessment and an assessment at the end of the “fixed-dose” period and was a comparison of the proportion of successes with 0.10 (the null hypothesis corresponding to no treatment effect).

[2] = tested on: patients with PD and constipation; assay: Circadian rhythm of wrist skin temperature; assay type: in vivo, human
Experimental: (6) I-Button Temperature Assessment. The I-Button is a small, rugged self-sufficient system that measures temperature and records the results in a protected memory section. The Thermochron I-Button DS1921H (Maxim Integrated, Dallas, Tex.) was used for skin temperature measurement. I-Buttons were programmed to sample every 10 mins., and attached to a double-sided cotton sport wrist band using Velcro, with the sensor face of the I-Button placed over the inside of the wrist, on the radial artery of the dominant hand. Subjects removed and replaced the data logger when necessary (i.e., to have a bath or shower). The value of skin temperature assessment in sleep research is that the endogenous skin warming resulting from increased skin blood flow is functionally linked to sleep propensity. From the collected data, the mesor, amplitude, acrophase (time of peak temperature), Rayleight test (an index of interdaily stability), mean waveforms are calculated);
Assessments were made at baseline and at the end of the fixed dose and washout periods. Circadian system status was evaluated by continuously monitoring wrist skin temperature (Thermochron iButton DS1921H; Maxim, Dallas) following published procedures (Sarabia et al. 2008).
Circadian rhythm of skin temperature was evaluable in 12 patients (i.e., those who had recordings that extended from baseline through washout). Circadian system functionality was evaluated by continuously monitoring wrist skin temperature using a temperature sensor (Thermochron iButton DS1921H; Maxim, Dallas, Tex.) (Sarabia et al. 2008). A nonparametric analysis was performed for each participant to characterize DST as previously described (Sarabia et al. 2008; Ortiz-Tudela et al. 2010).
Briefly, this analysis includes the following parameters: (i) the inter-daily stability (the constancy of 24-hour rhythmic pattern over days, IS); (ii) intra-daily variability (rhythm fragmentation, IV); (iii) average of 10-minute intervals for the 10 hours with the minimum temperature (L10); (iv) average of 10-minute intervals for the 5 hours with the maximum temperature (M5) and the relative amplitude (RA), which was determined by the difference between M5 and L10, divided by the sum of both. Finally, the Circadian Function Index (CFI) was calculated by integrating IS, IV, and RA. Consequently, CFI is a global measure that oscillates between 0 for the absence of circadian rhythmicity and 1 for a robust circadian rhythm (Ortiz-Tudela et al., 2010).

[3] = fixed dose vs baseline, 12 patients

CC(C)[C@@H](CC[C@@H](C)[C@H]1CC[C@H]2[C@@H]3[C@H](O)C[C@H]4C[C@@H](NCCCNCCCCN)CC[C@]4(C)[C@H]3CC[C@]12C)OS(=O)(=O)O (single isomer, unassigned) [squalamine (ENT-01), squalamine]
CSBM, weekly average (mean, SD) [1]: 3.8 CSBM/week and 3.8 (2.40) CSBM/week
PAC-SYM (mean, SD) [1]: 1.1 (0.49)
Suppository use / rescue medication, weekly average (mean, SD) [1]: 0.3 /week
Consistency, Bristol stool scale 1-7 (mean, SD) ([1]; listed as aminosterol): 4.1
Ease of passage, Ease of evacuation scale (mean, SD) ([1]; listed as aminosterol): 3.7
circadian function index (CFI) [2, 3]: increasing
relative amplitude (RA) [2, 3]: increasing
rhythm fragmentation (intra-daily variability, IV) [2, 3]: reducing
rhythm stability (inter-daily stability, IS) [2, 3]: increasing
impact on the circadian rhythm of skin temperature ([2]; oral administration, 12 patients with evaluable data): significant positive impact
circadian function index (CFI) ([2]; wash-out period, 12 patients): improvement persisted
rhythm stability (IS) ([2]; wash-out period, 12 patients): improvement persisted
